This is an account of results in article PMC12621201, “Exploiting the 2‑(1,3,4,9-tetrahydropyrano[3,4‑b]indol-1-yl)acetic Acid Scaffold to Generate COXTRANs: A New Class of Dual Cyclooxygenase Inhibitors-Thromboxane Receptor Antagonists” (Journal of Medicinal Chemistry, 2025).

For orientation: AUC(0-inf) means the area under the concentration-time curve extrapolated to infinity. The low end stands for less exposure, the high end for more exposure. What is called CL/F is clearance divided by bioavailability, as obtained after extravascular dosing. In general, half-life refers to how long it takes for the measured level to halve. Lower therefore signals rapid decline.

Data set [1] concerns CFA-induced inflammatory pain. Nature of the data set: CFA-induced inflammatory pain (dynamic plantar aesthesiometer). The conditions noted are these: mice, 50 mg/kg oral gavage 24 h after CFA.
Description: Experiments were performed in 6–12 week-old male and female C57BL/6N mice (Charles River, Sulzfeld, Germany). […] The studies were performed by an observer blinded for treatment of the animals.
Mechanical sensitivity of a hindpaw was assessed using a dynamic plantar aesthesiometer (Ugo Basile, Comerio, VA, Italy). […] The paw withdrawal latency was recorded automatically and calculated as the average of 6–8 measurements. […] Immediately thereafter, drugs or vehicle were administered by oral gavage and the mechanical sensitivity was determined over 2 h.
A further data set is described as follows: PK studies in mice. The following applies: male CD1 mice (n = 3), oral gavage, cassette dose 10 mg/kg each. The data set is classed as in vivo. The procedure:
A total number of 3 adult male RjOrl:Swiss (CD-1) mice were housed in a temperature-controlled room (20–24 °C) and maintained in a 12 h light/12 h dark cycle. Food and water were provided ad libitum. All experimental procedures were approved by and conducted in accordance with the regulations of the local Animal Welfare authorities (Landesamt für Gesundheit and Verbraucherschutz, Abteilung Lebensmittel- and Veterinärwesen, Saarbrücken). At each time point a volume of 100–150 μL Li-heparin whole blood, i.e. 40–50 μL Li-heparin plasma, was collected from the retrobulbar venous plexus under short isoflurane anesthesia. The plasma samples were prepared within 45 min after collection, frozen at −20 °C and stored at this temperature until processed for LC–MS analysis. The PK studies were performed by the CRO Pharmacelsus GmbH under the protocol number 2021UFM002.

[2] abbreviates: CD-1 (RjOrl:Swiss), mouse, plasma.

For the molecule `CCC1(CC(=O)O)OCCc2c1[nH]c1c(Cc3ccccc3)cc(F)cc21` (stereo not drawn) [Compound 51, 2-(8-Benzyl-1-ethyl-6-fluoro-1,3,4,9-tetrahydropyrano[3,4-b]indol-1-yl)acetic Acid], the “paw withdrawal latency compared to 24 h post-CFA” value in data set [1] (1 h after administration) is “significantly increased”. Further, the “paw withdrawal latency compared to 24 h post-CFA” value in data set [1] (2 h after administration) was “significantly increased”. In “PK studies in mice” (setting [2]), this molecule gave an AUC(0-inf) of 59300 ng·h/mL, a CL/F of 2.82 mL/min/kg and a half-life of 11.6 h. In addition, the AUC(0-t) in “PK studies in mice” (CD-1 (RjOrl:Swiss), mouse, plasma, read-out: AUC0–24) stood at 45600 ng·h/mL. For the same molecule, the Vd/F in the data set “PK studies in mice” (CD-1 (RjOrl:Swiss), mouse, plasma, read-out: V z/f) stood at 2.82 L/kg. Moreover, in the data set “PK studies in mice”, the “C 24h ± CV %” value came out at 819 ± 76.7% and the “C max ± CV %” value is recorded as 3170 ± 58.6%.
